Measured values as given in PubChem BioAssay AID248 (DTP/NCI, 2004).
Where “and” joins values, the source holds several entries; their conditions need not be identical. Equal entries are not always repeated. Toxic doses and inconclusive results are not listed.

Test system: L1210 leukemia ip in BDF1 mice, survival T/C
Test: NCI In Vivo Anticancer Drug Screen. Data for tumor model L1210 Leukemia (intraperitoneal) in B6D2F1 (BDF1) mice
Conditions: endpoint: mean survival time, higher = longer survival
How it was run: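 Survival endpoint. Drug-treated group vs vehicle group, expressed as T divided by C. Tumor passaged by transplantation.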

[1] = dose: 100.0 mg/kg/injection, schedule: Q01DX001 (ip), vehicle: Klucel (hydroxypropylcellulose) (HPC)
[2] = dose: 100.0 mg/kg/injection, schedule: Q01DX009 (ip), vehicle: Klucel (hydroxypropylcellulose) (HPC)
[3] = dose: 100.0 mg/kg/injection, schedule: Q04DX003 (ip), vehicle: Klucel (hydroxypropylcellulose) (HPC)
[4] = dose: 200.0 mg/kg/injection, schedule: Q01DX001 (ip), vehicle: Klucel (hydroxypropylcellulose) (HPC)
[5] = dose: 200.0 mg/kg/injection, schedule: Q01DX009 (ip), vehicle: Klucel (hydroxypropylcellulose) (HPC)
[6] = dose: 200.0 mg/kg/injection, schedule: Q04DX003 (ip), vehicle: Klucel (hydroxypropylcellulose) (HPC)
[7] = dose: 400.0 mg/kg/injection, schedule: Q01DX001 (ip), vehicle: Klucel (hydroxypropylcellulose) (HPC)
[8] = dose: 400.0 mg/kg/injection, schedule: Q01DX009 (ip), vehicle: Klucel (hydroxypropylcellulose) (HPC)
[9] = dose: 400.0 mg/kg/injection, schedule: Q04DX003 (ip), vehicle: Klucel (hydroxypropylcellulose) (HPC)
[10] = dose: 100.0 mg/kg/injection, schedule: Q04DX002 (ip), vehicle: Klucel (hydroxypropylcellulose) (HPC)
[11] = dose: 200.0 mg/kg/injection, schedule: Q04DX002 (ip), vehicle: Klucel (hydroxypropylcellulose) (HPC)
[12] = dose: 400.0 mg/kg/injection, schedule: Q04DX002 (ip), vehicle: Klucel (hydroxypropylcellulose) (HPC)
[13] = dose: 100.0 mg/kg/injection, schedule: Q01DX001 (ip), vehicle: saline
[14] = dose: 200.0 mg/kg/injection, schedule: Q01DX001 (ip), vehicle: saline

`O=C1OCCN1C(=O)c1ccc([N+](=O)[O-])cc1` was tested, and the T/C [1] was 97 % of control, the T/C [2] was 89 % of control and the T/C [3] was 97 % of control. The T/C [4] was 94 % of control, the T/C [5] was 94 % of control and the T/C [6] was 98 % of control. The T/C [7] was 97 % of control, the T/C [8] was 88 % of control and the T/C [9] was 98 % of control.

With `C=CCN(CC=C)C(=O)Nc1ccc(C(=O)N/N=C/c2cccc(OC)c2OC)cc1` the T/C [2] was 103 % of control and 88 % of control, the T/C [10] was 95 % of control and 105 % of control and the T/C [5] was 100 % of control and 88 % of control. The T/C [11] was 94 % of control and 101 % of control, the T/C [8] was 95 % of control and the T/C [12] was 97 % of control and 105 % of control.

In the case of `CCCCCCCC(Cc1ccccc1)C(N)=O` (stereo unspecified), the T/C [13] is reported as 97 % of control, the T/C [14] is reported as 92 % of control and the T/C (dose: 400.0 mg/kg/injection, schedule: Q01DX001 (ip), vehicle: saline) is reported as 92 % of control.

`CN(N=O)C(=O)NCCCl` was tested, and the T/C (dose: 0.36 mg/kg/injection, schedule: Q01DX Z (ip), vehicle: carboxymethylcellulose (CMC)) was 104 % of control, the T/C (dose: 0.78 mg/kg/injection, schedule: Q01DX Z (ip), vehicle: carboxymethylcellulose (CMC)) was 95 % of control and the T/C (dose: 1.56 mg/kg/injection, schedule: Q01DX Z (ip), vehicle: carboxymethylcellulose (CMC)) was 98 % of control. For the same molecule, the T/C (dose: 3.12 mg/kg/injection, schedule: Q01DX Z (ip), vehicle: carboxymethylcellulose (CMC)) was 102 % of control, the T/C (dose: 6.25 mg/kg/injection, schedule: Q01DX Z (ip), vehicle: carboxymethylcellulose (CMC)) was 102 % of control and the T/C (dose: 12.5 mg/kg/injection, schedule: Q01DX001 (ip), vehicle: Klucel (hydroxypropylcellulose) (HPC)) was 103 % of control. For the same molecule, the T/C (dose: 12.5 mg/kg/injection, schedule: Q01DX Z (ip), vehicle: carboxymethylcellulose (CMC)) was 101 % of control, the T/C (dose: 25.0 mg/kg/injection, schedule: Q01DX001 (ip), vehicle: Klucel (hydroxypropylcellulose) (HPC)) was 103 % of control and the T/C (dose: 25.0 mg/kg/injection, schedule: Q01DX Z (ip), vehicle: carboxymethylcellulose (CMC)) was 104 % of control. The T/C (dose: 75.0 mg/kg/injection, schedule: Q01DX Z (ip), vehicle: carboxymethylcellulose (CMC)) was 119 % of control and the T/C [4] was 118 % of control.

For `CC(=O)CCNc1ccc(O)c2c1C(=O)c1ccccc1C2=O`, the T/C (dose: 100.0 mg/kg/injection, schedule: Q01DX001 (ip), vehicle: carboxymethylcellulose (CMC)) was 96 % of control, the T/C (dose: 200.0 mg/kg/injection, schedule: Q01DX001 (ip), vehicle: carboxymethylcellulose (CMC)) was 89 % of control and the T/C (dose: 400.0 mg/kg/injection, schedule: Q01DX001 (ip), vehicle: carboxymethylcellulose (CMC)) was 94 % of control.

For `COC(=O)C1(C)CCC(c2ccc(C)cc2)=C(CC(=O)O)C1` (stereo unspecified), the T/C (dose: 100.0 mg/kg/injection, schedule: Q01DX009 (ip), vehicle: saline) was 115 % of control, the T/C (dose: 100.0 mg/kg/injection, schedule: Q04DX003 (ip), vehicle: saline) was 100 % of control and the T/C (dose: 200.0 mg/kg/injection, schedule: Q01DX009 (ip), vehicle: saline) was 97 % of control. For the same molecule, the T/C (dose: 200.0 mg/kg/injection, schedule: Q04DX003 (ip), vehicle: saline) was 96 % of control, the T/C (dose: 400.0 mg/kg/injection, schedule: Q01DX009 (ip), vehicle: saline) was 95 % of control and the T/C (dose: 400.0 mg/kg/injection, schedule: Q04DX003 (ip), vehicle: saline) was 115 % of control.

`CC1(C)c2ccccc2C(=O)C1(Br)Cc1ccccc1` (stereo unspecified) was tested, and the T/C (dose: 100.0 mg/kg/injection, schedule: Q01DX009 (ip), vehicle: saline with Tween-80) was 90 % of control.

With `CC(C)(C)[Se]C(=N)N` the T/C (dose: 18.8 mg/kg/injection, schedule: Q01DX001 (ip), vehicle: saline with Tween-80) was 101 % of control, the T/C (dose: 37.5 mg/kg/injection, schedule: Q01DX001 (ip), vehicle: saline with Tween-80) was 100 % of control and the T/C (dose: 50.0 mg/kg/injection, schedule: Q01DX001 (ip), vehicle: saline with Tween-80) was 107 % of control. For the same molecule, the T/C (dose: 75.0 mg/kg/injection, schedule: Q01DX001 (ip), vehicle: saline with Tween-80) was 95 % of control.

In the case of `O=C(C1CC1c1ccccc1)N1CCC(O)(c2ccccc2)CC1` (stereo unspecified), the T/C (dose: 100.0 mg/kg/injection, schedule: Q04DX002 (ip), vehicle: saline with Tween-80) is reported as 103 % of control, the T/C (dose: 200.0 mg/kg/injection, schedule: Q04DX002 (ip), vehicle: saline with Tween-80) is reported as 100 % of control and the T/C (dose: 400.0 mg/kg/injection, schedule: Q04DX002 (ip), vehicle: saline with Tween-80) is reported as 97 % of control.

For `CC(C)(O)C(O)CC1=C(O)c2ccccc2C(=O)C1=O` (stereo unspecified), the T/C (dose: 100.0 mg/kg/injection, schedule: Q01DX001 (ip), vehicle: water) was 106 % of control, the T/C (dose: 200.0 mg/kg/injection, schedule: Q01DX001 (ip), vehicle: water) was 97 % of control and the T/C (dose: 400.0 mg/kg/injection, schedule: Q01DX001 (ip), vehicle: water) was 93 % of control.

For `NC1=NC(=O)C(c2ccccc2)O1` (stereo unspecified), the T/C (dose: 25.0 mg/kg/injection, schedule: Q01DX009 (ip), vehicle: Klucel (hydroxypropylcellulose) (HPC)) was 88 % of control, the T/C (dose: 25.0 mg/kg/injection, schedule: Q04DX003 (ip), vehicle: Klucel (hydroxypropylcellulose) (HPC)) was 92 % of control and the T/C (dose: 50.0 mg/kg/injection, schedule: Q01DX009 (ip), vehicle: Klucel (hydroxypropylcellulose) (HPC)) was 94 % of control. For the same molecule, the T/C (dose: 50.0 mg/kg/injection, schedule: Q04DX003 (ip), vehicle: Klucel (hydroxypropylcellulose) (HPC)) was 95 % of control, the T/C [2] was 91 % of control and the T/C [3] was 103 % of control. The T/C [5] was 102 % of control, the T/C [6] was 103 % of control and the T/C [9] was 89 % of control.

With `COC(=O)Cc1cc(C)n(C)c(=O)c1CN1C(=O)c2ccccc2C1=O` the T/C (dose: 100.0 mg/kg/injection, schedule: Q04DX003 (ip), vehicle: other) was 102 % of control, the T/C (dose: 200.0 mg/kg/injection, schedule: Q04DX003 (ip), vehicle: other) was 107 % of control and the T/C (dose: 400.0 mg/kg/injection, schedule: Q04DX003 (ip), vehicle: other) was 98 % of control.

With `CCCCCCCCCCCCCCCCCCSCCO` the T/C [3] was 100 % of control and 90 % of control, the T/C [6] was 102 % of control and the T/C [9] was 92 % of control and 100 % of control.

In the case of `CCCNC(c1ccccc1)=[N+]1CCCCC1`, the T/C (dose: 12.5 mg/kg/injection, schedule: Q04DX002 (ip), vehicle: saline) is reported as 95 % of control and the T/C (dose: 25.0 mg/kg/injection, schedule: Q04DX002 (ip), vehicle: saline) is reported as 98 % of control.

For `CCCCCCCCC(O)CC` (stereo unspecified), the T/C [2] was 93 % of control and 96 % of control, the T/C [3] was 103 % of control and the T/C [5] was 96 % of control. The T/C [6] was 97 % of control, the T/C [8] was 92 % of control and 105 % of control and the T/C [9] was 97 % of control.

With `O=C(Nc1ccc(C2=NCCN2)cc1)c1ccc(C(=O)Nc2ccc(C3=NCCN3)cc2)c2ccccc12` the T/C (dose: 3.75 mg/kg/injection, schedule: Q01DX Z (ip), vehicle: methylcellulose (MC)) was 102 % of control, the T/C (dose: 7.5 mg/kg/injection, schedule: Q01DX Z (ip), vehicle: methylcellulose (MC)) was 118 % of control and the T/C (dose: 15.0 mg/kg/injection, schedule: Q01DX Z (ip), vehicle: methylcellulose (MC)) was 169 % of control. The T/C (dose: 30.0 mg/kg/injection, schedule: Q01DX Z (ip), vehicle: methylcellulose (MC)) was 166 % of control and 170 % of control, the T/C (dose: 30.0 mg/kg/injection, schedule: Q01DX Z (oral), vehicle: carboxymethylcellulose (CMC)) was 102 % of control and the T/C (dose: 120.0 mg/kg/injection, schedule: Q01DX Z (oral), vehicle: carboxymethylcellulose (CMC)) was 94 % of control.

With `CCC(=O)n1cc2ccc([N+](=O)[O-])cc2n1` the T/C [10] was 112 % of control, the T/C [11] was 104 % of control and the T/C [12] was 101 % of control.

`OC(CNc1ccccc1)CN1CCN(CC(O)CNc2ccccc2)CC1` (stereo unspecified) was tested, and the T/C (dose: 50.0 mg/kg/injection, schedule: Q01DX001 (ip), vehicle: saline) was 105 % of control, the T/C [13] was 98 % of control and the T/C [14] was 94 % of control.

In the case of `COC(=O)C1C2CC3C(OC(=O)C31)C2Br` (stereo unspecified), the T/C [1] is reported as 98 % of control, the T/C [2] is reported as 102 % of control and the T/C [3] is reported as 104 % of control. The T/C [4] was 103 % of control, the T/C [5] was 93 % of control and the T/C [6] was 105 % of control. For the same molecule, the T/C [7] was 109 % of control, the T/C [8] was 94 % of control and the T/C [9] was 107 % of control.

In the case of `Oc1cccc2ccc3cccc(O)c3c12`, the T/C (dose: 100.0 mg/kg/injection, schedule: Q04DX003 (ip), vehicle: alcohol) is reported as 100 % of control and the T/C (dose: 200.0 mg/kg/injection, schedule: Q04DX003 (ip), vehicle: alcohol) is reported as 93 % of control.

In the case of `CCOP(=O)(OCC)C1=C(P(=O)(OCC)OCC)C(F)(F)C1(F)F`, the T/C (dose: 75.0 mg/kg/injection, schedule: Q01DX001 (ip), vehicle: other) is reported as 102 % of control.
